Holding throughout (format): cell-based
The test system of one assay is GOT3 cell line. The experiment in a line: High throughput drug sensitivity and resistance test (CellTiter-Glo, 72 hours). Conditions: GOT3; for GOT3 cell line: DSS(combo (BAY2666605))-DSS(drug): drug combined with BAY2666605 (40 nM) minus drug alone; for GOT3 cell line: DSS(combo (anagrelide))-DSS(drug): drug combined with anagrelide hydrochloride (100 nM) minus drug alone. How it is done: (§1) Cell lines. PDE3A-positive (GIST882, SA4, and GOT3) and PDE3A-negative cell lines (93TT449, 94T778, LPS141, MLS17656-92, MLS402-91, and SW872) were cultured in RPMI Medium 1640 (Gibco) with 5-, 10- or 20% fetal bovine serum (FBS, gibco), 100 U/mL of penicillin, 100 […] and 0.03 mg/mL of L-glutamine (Pen Strep Glut, Gibco, 10378-016) in a humidified, 5% CO2 atmosphere at 37° C.
(§2) High throughput drug sensitivity and resistance test. A sensitivity and resistance of cancer cell lines to 528 compounds were investigated in 9 cell lines (GIST882, SA4, GOT3, 93TT449, 94T778, LPS141, MLS17656-92, MLS402-91, and SW872). In addition, same compounds were investigated together with anagrelide hydrochloride (100 nM) treatment in the PDE3A low expressing cell lines SA4 and GOT3, and with BAY2666605 (40 nM) in all PDE3A-positive cell lines GIST882, SA4 and GOT3. The compounds were dissolved in 100% dimethyl sulfoxide or water and plated in 10-fold dilutions covering a 10,000-fold concentration range on flat clear bottom 384-well microplates as described in detail earlier (Pulkka O P, et al 2019). A cell viability was measured after 72 hours using CellTiter-Glo Cell Viability assay (Promega Inc.) and PHERAstar FS plate reader (BMG Labtech). The data were normalized to negative (0.01% dimethyl sulfoxide only) and positive (100 μmol/L benzethonium chloride) controls.
(§3) A four-parameter logistic dose-response curves were estimated by using the Marquardt-Levenberg algorithm and Breeze analysis platform. Drug responses to the test compounds were measured using the drug sensitivity score (DSS). Drug synergy partners, which were common in investigated cell lines were identified as following: DSS value of a single agent was subtracted from the DSS value of anagrelide-drug combination in single cell lines. […] The analysis was repeated by using BAY2666605 as a PDE3A modulator.

A further assay relates to SA4 cell line. Described as above. The following applies: SA4; for SA4 cell line: DSS(combo (BAY2666605))-DSS(drug): drug combined with BAY2666605 (40 nM) minus drug alone; for SA4 cell line: DSS(combo (anagrelide))-DSS(drug): drug combined with anagrelide hydrochloride (100 nM) minus drug alone. How it is done:
as §1, §2, §3

In the next assay the test system is GIST882 cell line. The assay is described as above. Conditions: drug combined with BAY2666605 (40 nM) minus drug alone. How it is done:
High throughput drug sensitivity and resistance test. […] In addition, same compounds were investigated together with anagrelide hydrochloride (100 nM) treatment in the PDE3A low expressing cell lines SA4 and GOT3, and with BAY2666605 (40 nM) in all PDE3A-positive cell lines GIST882, SA4 and GOT3. […] A cell viability was measured after 72 hours using CellTiter-Glo Cell Viability assay (Promega Inc.) and PHERAstar FS plate reader (BMG Labtech). The data were normalized to negative (0.01% dimethyl sulfoxide only) and positive (100 μmol/L benzethonium chloride) controls.
as §3

Assay [1] deals with GIST882, GOT3 and SA4 cell lines. The experiment in a line: High throughput drug sensitivity and resistance test, average over cell lines (BAY2666605 combination). The following applies: for Average DSS (aDSS): BAY2666605 combination, average of GIST882, SA4 and GOT3, aDSS higher than 3.0 = synergy. How it is done:
as §1, §2, §3

The next assay concerns GOT3 and SA4 cell lines. The experiment in a line: High throughput drug sensitivity and resistance test, average over cell lines (anagrelide combination). Conditions: anagrelide combination, average of SA4 and GOT3; aDSS higher than 3.0 = synergy. How it is done:
as §1, §2, §3

[2] abbreviates: with anagrelide (GOT3, SA4) or BAY2666605 (GIST882, GOT3, SA4).

The structures appear in SMILES notation. Read-outs that look alike come from different tables or passages of the source.

Consider `COc1ccc(-c2ccc3ncc4c(c3c2)n(-c2ccc(N3CCNCC3)c(C(F)(F)F)c2)c(=O)n4C)cn1` [NVP-BGT226], for which, in the assay on GOT3 cell line, the “GOT3 cell line: DSS(combo (BAY2666605))-DSS(drug)” value came out at 0.1. Moreover, the “SA4 cell line: DSS(combo (BAY2666605))-DSS(drug)” value with SA4 cell line came to 8.1. For the same compound, in the assay with GIST882 cell line, the “GIST882 cell line: DSS(combo (BAY2666605))-DSS(drug)” value (“GIST882 cell line” below) is given as 6.2. Besides, the “Average DSS (aDSS)” value in assay [1] is on record as 4.8. In assay [1] (setting [2]), the “synergy in high-throughput screening (in words)” value (shortened to “synergy”) is given as “synergistic”.
As for `O=C(CCCCCCC(=O)Nc1ccccc1)NO` [Vorinostat, vorinostat], in the assay with GOT3 cell line, the “GOT3 cell line: DSS(combo (BAY2666605))-DSS(drug)” value is on record as 1.6 and the “GOT3 cell line: DSS(combo (anagrelide))-DSS(drug)” value is −0.7. Further, in the assay with SA4 cell line, the “SA4 cell line: DSS(combo (BAY2666605))-DSS(drug)” value worked out at 13.7 and the “SA4 cell line: DSS(combo (anagrelide))-DSS(drug)” value came out at 7.2. For the same compound, the “GIST882 cell line” value with GIST882 cell line was found to be 4.2. In the assay on GOT3 and SA4 cell lines, the “Average DSS (aDSS)” value is reported as 3.25. The “Average DSS (aDSS)” value in assay [1] turned out to be 6.5. Moreover, the “synergy” value in assay [1] (setting [2]) was “synergistic”.
As for `C=C(c1ccc(C(=O)O)cc1)c1cc2c(cc1C)C(C)(C)CCC2(C)C` [Bexarotene, bexarotene], the “GOT3 cell line: DSS(combo (BAY2666605))-DSS(drug)” value in the assay with GOT3 cell line is listed as −1.1. The “SA4 cell line: DSS(combo (BAY2666605))-DSS(drug)” value in the assay on SA4 cell line is 6.4. Further, the “GIST882 cell line” value in the assay on GIST882 cell line is recorded as 6.3. Moreover, the “Average DSS (aDSS)” value in assay [1] was 3.9. The “synergy” value in assay [1] (setting [2]) is “synergistic”.
In the same order, the values of `Cn1c(=O)n(-c2ccc(C(C)(C)C#N)cc2)c2c3cc(-c4cnc5ccccc5c4)ccc3ncc21` [Dactolisib, dactolisib] are 8.2, 4.6, 3.1, 5.3 and “synergistic”.
In the same order, the values of `O=C(/C=C\n1cnc(-c2cc(C(F)(F)F)cc(C(F)(F)F)c2)n1)NNc1cnccn1` [Selinexor] are −0.7, 5.4, 7.9, 4.2 and “synergistic”.
In the case of `CO[C@H]1C[C@@H]2CC[C@@H](C)[C@@](O)(O2)C(=O)C(=O)N2CCCC[C@H]2C(=O)O[C@H]([C@H](C)C[C@@H]2CC[C@@H](OP(C)(C)=O)[C@H](OC)C2)CC(=O)[C@H](C)/C=C(\C)[C@@H](O)[C@@H](OC)C(=O)[C@H](C)C[C@H](C)/C=C/C=C/C=C/1C` [Ridaforolimus, ridaforolimus], in the assay on GOT3 cell line, the “GOT3 cell line: DSS(combo (BAY2666605))-DSS(drug)” value is given as −1.9 and the “GOT3 cell line: DSS(combo (anagrelide))-DSS(drug)” value was determined as 4.4. Also, in the assay on SA4 cell line, the “SA4 cell line: DSS(combo (BAY2666605))-DSS(drug)” value was 13.7 and the “SA4 cell line: DSS(combo (anagrelide))-DSS(drug)” value came to 13.2. For the same compound, the “GIST882 cell line” value in the assay on GIST882 cell line came out at 0.3. In addition, in the assay on GOT3 and SA4 cell lines, the “Average DSS (aDSS)” value was 8.8.
In the case of `NC(=O)/C(=C/n1cnc(-c2cc(C(F)(F)F)cc(C(F)(F)F)c2)n1)c1cncnc1` [Eltanexor, eltanexor], in the assay on GOT3 cell line, the “GOT3 cell line: DSS(combo (BAY2666605))-DSS(drug)” value is recorded as 0.8. In addition, the “SA4 cell line: DSS(combo (BAY2666605))-DSS(drug)” value in the assay on SA4 cell line is given as 3.1. Also, in the assay with GIST882 cell line, the “GIST882 cell line” value was determined as 5.4. In assay [1], the “Average DSS (aDSS)” value is listed as 3.1. In addition, in assay [1] (setting [2]), the “synergy” value was “synergistic”.
For the compound `CC(C)C[C@H](NC(=O)[C@H](Cc1ccccc1)NC(=O)c1cnccn1)B(O)O` [Bortezomib, bortezomib], the “GOT3 cell line: DSS(combo (BAY2666605))-DSS(drug)” value with GOT3 cell line was 10.4. In the assay on SA4 cell line, the “SA4 cell line: DSS(combo (BAY2666605))-DSS(drug)” value is listed as 11.2. Moreover, in the assay on GIST882 cell line, the “GIST882 cell line” value is 1.7. For the same compound, in assay [1], the “Average DSS (aDSS)” value worked out at 7.8.
Turning to `CC(C)N(C[C@H]1O[C@@H](n2cnc3c(N)ncnc32)[C@H](O)[C@@H]1O)[C@H]1C[C@@H](CCc2nc3cc(C(C)(C)C)ccc3[nH]2)C1` [Pinometostat, pinometostat], the “GOT3 cell line: DSS(combo (BAY2666605))-DSS(drug)” value with GOT3 cell line is 0. Also, in the assay on SA4 cell line, the “SA4 cell line: DSS(combo (BAY2666605))-DSS(drug)” value stood at 9.8. For the same compound, the “GIST882 cell line” value with GIST882 cell line worked out at 3.9. In assay [1], the “Average DSS (aDSS)” value is given as 4.6. Further, the “synergy” value in assay [1] (setting [2]) is recorded as “synergistic”.
As to `Cn1nnc2c(C(N)=O)ncn2c1=O` [Temozolomide, temozolomide], the “GOT3 cell line: DSS(combo (BAY2666605))-DSS(drug)” value with GOT3 cell line amounted to 1.9. Besides, the “SA4 cell line: DSS(combo (BAY2666605))-DSS(drug)” value in the assay on SA4 cell line came to 5.2. Also, the “GIST882 cell line” value with GIST882 cell line is given as 5.4. In assay [1], the “Average DSS (aDSS)” value was found to be 4.2.
Turning to `COc1ncc(-c2ccc3nccc(-c4ccnnc4)c3c2)cc1NS(=O)(=O)c1ccc(F)cc1F` [Omipalisib, omipalisib], the “GOT3 cell line: DSS(combo (BAY2666605))-DSS(drug)” value with GOT3 cell line is −0.4. In the assay on SA4 cell line, the “SA4 cell line: DSS(combo (BAY2666605))-DSS(drug)” value was found to be 6.5. The “GIST882 cell line” value with GIST882 cell line turned out to be 7.4. In assay [1], the “Average DSS (aDSS)” value stood at 4.5. The “synergy” value in assay [1] (setting [2]) is given as “synergistic”.
Take `CO[C@@H](C)Cn1c(=O)n(C)c2cnc3ccc(-c4cncc(C(C)(C)O)c4)cc3c21` [LY3023414]: the “GOT3 cell line: DSS(combo (BAY2666605))-DSS(drug)” value in the assay with GOT3 cell line is 1.5. Moreover, in the assay with SA4 cell line, the “SA4 cell line: DSS(combo (BAY2666605))-DSS(drug)” value amounted to 9.3. The “GIST882 cell line” value in the assay with GIST882 cell line is 2.4. The “Average DSS (aDSS)” value in assay [1] was 4.4. Besides, in assay [1] (setting [2]), the “synergy” value is given as “synergistic”.
In the same order, the values of `COc1c(OCCCN2CCOCC2)ccc2c1N=C(NC(=O)c1cnc(N)nc1)N1CCN=C21` [Copanlisib, copanlisib] are −1.4, 8.1, 6.8, 4.5 and “synergistic”.
As for `C[C@@]1(C(=O)Nc2ccc(F)nc2)CCCN1c1nc(Nc2cc(C3CC3)n[nH]2)c2cccn2n1` [BMS-754807], the “GOT3 cell line: DSS(combo (BAY2666605))-DSS(drug)” value in the assay with GOT3 cell line was determined as 4.4. Moreover, in the assay on SA4 cell line, the “SA4 cell line: DSS(combo (BAY2666605))-DSS(drug)” value stood at 7.5. Moreover, in the assay on GIST882 cell line, the “GIST882 cell line” value was 0.7. Besides, the “Average DSS (aDSS)” value in assay [1] is given as 4.2. Further, in assay [1] (setting [2]), the “synergy” value is on record as “synergistic”.
In the same order, the values of `CN(C)CCCOc1ccc(-c2ccc3ncc4c(c3c2)n(C2CCOCC2)c(=O)n4C)cn1` [AZD0156] are −1.2, 3, 7.5, 3.1 and “synergistic”.
In the same order, the values of `CN1CCc2c(c3ccccc3n2Cc2ccc(C(=O)NO)cc2)C1` [Tubastatin A, tubastatin A] are 2.8, 10.7, −0.3, 4.4 and “synergistic”.
Consider `O=C(CCCCCCNC(=O)c1cnc(N(c2ccccc2)c2ccccc2)nc1)NO` [Rocilinostat, rocilinostat], for which, in the assay with GOT3 cell line, the “GOT3 cell line: DSS(combo (BAY2666605))-DSS(drug)” value was 0.9. In addition, the “SA4 cell line: DSS(combo (BAY2666605))-DSS(drug)” value in the assay on SA4 cell line was found to be 7.5. Besides, the “GIST882 cell line” value in the assay on GIST882 cell line worked out at 1.4. In addition, in assay [1], the “synergy” value is listed as “synergistic” and the “Average DSS (aDSS)” value worked out at 3.3.
`COc1ccc(C[C@H](NC(=O)[C@H](C)NC(=O)CN2CCOCC2)C(=O)N[C@@H](Cc2ccccc2)C(=O)C2(C)CO2)cc1` (stereo in doubt) [ONX-0914]: in the assay with GOT3 cell line, the “GOT3 cell line: DSS(combo (BAY2666605))-DSS(drug)” value is recorded as 0.9. Further, the “SA4 cell line: DSS(combo (BAY2666605))-DSS(drug)” value in the assay on SA4 cell line is 4.6. For the same compound, the “GIST882 cell line” value with GIST882 cell line was 8.4. The “Average DSS (aDSS)” value in assay [1] was 4.6. Also, the “synergy” value in assay [1] (setting [2]) is given as “synergistic”.

For the origin of these results see patent US20250041294A1, “Synergistic compositions for use in the treatment of cancer” (Sartar Therapeutics Oy, priority 2021, published 2025).
